Test results as given in patent publication US20260055097A9, “NRF2 PROTEIN DEGRADERS” (Ganymede Oncology, Inc., priority 2022, published 2026).

Key:
[1] = tested on: various cancer cell lines; experiment: Cancer cell testing, inhibitory activity in various cancer cell lines (CellTiter-Glo, 72 hours); assay type: cell-based
Method: The inhibitory activity of representative Compounds of the Disclosure was tested in various cancer cell lines according to the following protocol.
Cells were harvested from flasks into cell culture media and cell numbers were counted. Cells were then diluted with culture medium to the desired density, and 40 μL of cell suspension were added into each well of a 384-well cell culture plate (Corning, #3764). Plates were covered with lids and placed at room temperature for 30 minutes without shaking, and then transferred into a 37° C. 5% CO2 incubator.
Cpd. Nos. 30 and 34 were dissolved in DMSO to form a 10 mM stock solution. Paclitaxel as the control compound was dissolved in DMSO to form a 0.33 mM stock solution. 45 μL of stock solution was transferred to a 384 pp-plate and 3-fold, 10-point dilutions were performed by transferring 15 μL of compound into 30 μL of DMSO using a TECAN (EVO200) liquid handler. Plates were spun at room temperature at 1,000 RPM for 1 minute, and shaken at a plate shaker for 2 minutes. […] of diluted compound were transferred from compound source plate into the cell plate. After compound treatment for 72 hours, CTG detection was performed for compound treatment plates as described in the “Detection” section.
CellTiter Glo reagents were thawed and equilibrated to room temperature before the experiment. Plates were removed from incubators and equilibrated at room temperature for 15 minutes. 40 μL of CellTiter-Glo reagent was added to each well to be detected at 1:1 to culture medium. Then, plates were placed at room temperature for 30 min followed by reading on Ensight.
Inhibition activity was calculated following the formula below:
[formula] • HC: 0.3% DMSO, LC: 1 μM Paclitaxel
IC50S were calculated by fitting the Curve using Xlfit (v5.3.1.3) according to the following equation: […]

A549 = experiment: Cancer cell viability, A549 (CellTiter-Glo); assay type: cell-based; settings: Homo sapiens, 72 h, A549 cells, 3 days, read-out: Cellular IC50 (μM) A549
How it was run: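 A549 and/or LK-2 lung carcinoma cells seeded overnight (20 K/mL A549; 35 K/mL LK-2), then exposed to compound for 3 days. Viability read as CellTiter-Glo luminescence after 15 min lysis; data fitted to curves.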

[2] = HCC15, HCC-15, LUNG, KEAP1 p.G364C
[3] = HEC59, UTERINE/ENDOMETRIAL, NRF2 p.N329D
[4] = HEC151, UTERINE/ENDOMETRIAL, KEAP1 p.A34S, NRF2 p.L23GfsTer5
[5] = HEC-251, HEC251, UTERINE/ENDOMETRIAL, KEAP1 p.Q227R, NRF2 p.K516T
[6] = HEC-265, UTERINE/ENDOMETRIAL, KEAP1 p.R483C
[7] = HO1U1, HEAD & NECK, NRF2 p.E82D
[8] = Homo sapiens, A549, A549, LUNG, KEAP1 p.G333C
[9] = Homo sapiens, COR-L88, CORL88, LUNG, NRF2 p.Q26P
[10] = Homo sapiens, EBC-1, EBC1, LUNG, NRF2 p.D77V
[11] = Homo sapiens, HCC44, HCC44, UTERINE/ENDOMETRIAL, KEAP1 p.F211C
[12] = Homo sapiens, HCC95, HCC-95, LUNG, no KEAP1/NRF2 mutation listed
[13] = Homo sapiens, HEC-1-A, HEC1A, UTERINE/ENDOMETRIAL, KEAP1 p.Y33C, NRF2 G31R
[14] = Homo sapiens, HEC-1B, HEC1B, UTERINE/ENDOMETRIAL, NRF2 p.G31R
[15] = Homo sapiens, KYSE-70, KYSE70, ESOPHAGEAL, NRF2 p.W24C
[16] = Homo sapiens, KYSE-180, KYSE180, ESOPHAGEAL, NRF2 p.P278Q
[17] = Homo sapiens, KYSE-520, KYSE520, ESOPHAGEAL, NRF2 p.T80I
[18] = Homo sapiens, MES-SA, MESSA, UTERINE/ENDOMETRIAL, NRF2 p.E79K
[19] = Homo sapiens, MRC5, MRC-5, NORMAL LUNG FIBROBLAST
[20] = Homo sapiens, NCI-H23, NCI-H23, LUNG, KEAP1 p.Q193H
[21] = Homo sapiens, NCI-H358, NCI-H358, LUNG, no KEAP1/NRF2 mutation listed
[22] = Homo sapiens, NCI-H460, NCI-H460, LUNG, KEAP1 p.D236H
[23] = Homo sapiens, NCI-H1792, NCI-H1792, LUNG, KEAP1 p.G462W
[24] = Homo sapiens, NCI-H1944, NCI-H1944, LUNG, KEAP1 p.R320L
[25] = Homo sapiens, NCI-H2030, NCI-H2030, LUNG, KEAP1 p.V568F
[26] = Homo sapiens, NCI-H2122, NCI-H2122, LUNG, KEAP1 p.A170_R204del
[27] = Homo sapiens, NCI-H2126, NCI-H2126, LUNG, KEAP1 p.R320L
[28] = Homo sapiens, NCI-H2228, NCI-H2228, LUNG, NRF2 p.G31A
[29] = Homo sapiens, RL95-2, RL95-2, UTERINE/ENDOMETRIAL, KEAP1 p.R116W
[30] = Homo sapiens, SHP77, SHP-77, LUNG, KEAP1 p.D294Y
[31] = Homo sapiens, UMC-11, UMC11, LUNG, KEAP1 p.G571A
[32] = JHOC-5, UTERINE/ENDOMETRIAL, KEAP1 p.R483H
[33] = MORCPR, LUNG, KEAP1 p.K551SfsTer44
[34] = NCI-H322, NCI-H322, LUNG, KEAP1 p.R460S
[35] = NCI-H1435, NCI-H1435, LUNG, KEAP1 p.R413L
[36] = NCI-H1688, NCI-H1688, LUNG, KEAP1 p.G511S
[37] = NCI-H2066, NCI-H2066, LUNG, KEAP1 p.P361L
[38] = NCI-H2110, NCI-H2110, LUNG, KEAP1 p.G429C
[39] = NCI-H2172, NCI-H2172, LUNG, KEAP1 p.G430C
[40] = OE21, OE21, ESOPHAGEAL, NRF2 p.D318H
[41] = RERF-LC-Sq1, RERFLCSQ1, LUNG, NRF2 p.D29H
[42] = RMUG-S, UTERINE/ENDOMETRIAL, KEAP1 p.G603V
[43] = SW579, SW579, HEAD & NECK, NRF2 p.D77Y

Cc1sc(NC(=O)Cc2cccc(OCCOCCNc3cccc4c3C(=O)N(C3CCC(=O)NC3=O)C4=O)c2)nc1-c1ccc2c(c1)CCN2C(=O)C1CC1 (centres unmarked) [Cpd. No. 34, N-(4-(1-(cyclopropanecarbonyl)indolin-5-yl)-5-methylthiazol-2-yl)-2-(3-(2-(2-((2-(2,6-dioxopiperidin-3-yl)-1,3-dioxoisoindolin-4-yl)amino)ethoxy)ethoxy)phenyl) acetamide]
IC50 [1, 2]: 30.1 nM | IC50 [1, 3]: 20.4 nM | IC50 [1, 4]: 86.7 nM | IC50 [1, 5]: 10.6 nM | IC50 [1, 6]: 66.7 nM | IC50 [1, 7]: 54.8 nM | IC50 [1, 8]: 20.6 nM | IC50 [1, 9]: 4.4 nM | IC50 [1, 10]: 152 nM | IC50 [1, 11]: > 30000 nM | IC50 [1, 12]: > 30000 nM | IC50 [1, 13]: 20.3 nM | IC50 [1, 14]: > 30000 nM | IC50 [1, 15]: 33.6 nM | IC50 [1, 16]: 45.8 nM | IC50 [1, 17]: 13.2 nM | IC50 [1, 18]: 35.1 nM | IC50 [1, 19]: 35.4 nM | IC50 [1, 20]: > 30000 nM | IC50 [1, 21]: 44.9 nM | IC50 [1, 22]: > 30000 nM | IC50 [1, 23]: 41.7 nM | IC50 [1, 24]: 107 nM | IC50 [1, 25]: 224 nM | IC50 [1, 26]: > 30000 nM | IC50 [1, 27]: > 30000 nM | IC50 [1, 28]: 57.4 nM | IC50 [1, 29]: 20.9 nM | IC50 [1, 30]: 22.5 nM | IC50 [1, 31]: 12.2 nM | IC50 [1, 32]: 54.2 nM | IC50 ([1]; LK-2, LUNG, NRF2 p.E79K): 9.4 nM | IC50 [1, 33]: 33.2 nM | IC50 [1, 34]: 23.9 nM | IC50 ([1]; NCI-H920, LUNG, KEAP1 p.G603V): > 30000 nM | IC50 [1, 35]: 150 nM | IC50 [1, 36]: 13 nM | IC50 [1, 37]: 15.9 nM | IC50 [1, 38]: 42.1 nM | IC50 [1, 39]: 14.2 nM | IC50 [1, 40]: > 30000 nM | IC50 [1, 41]: 85.6 nM | IC50 [1, 42]: 18.1 nM | IC50 ([1]; SNU2535, LUNG, NRF2 p.D29H): > 30000 nM | IC50 [1, 43]: 73.1 nM | IC50 (A549): 0.06 µM

Cc1sc(NC(=O)Cc2ccc(F)c(OCCOCCNc3ccc4c(c3)CN(C3CCC(=O)NC3=O)C4=O)c2)nc1-c1ccc2c(c1)CCN2C(=O)c1cncn1C (centres unmarked) [Cpd. No. 30, 2-(3-(2-(2-((2-(2,6-dioxopiperidin-3-yl)-1-oxoisoindolin-5-yl)amino)ethoxy)ethoxy)-4-fluorophenyl)-N-(5-methyl-4-(1-(1-methyl-1H-imidazole-5-carbonyl)indolin-5-yl)thiazol-2-yl)acetamide]
IC50 [1, 2]: 4.1 nM | IC50 [1, 3]: 2.8 nM | IC50 [1, 4]: 4.8 nM | IC50 [1, 5]: < 1.5 nM | IC50 [1, 6]: 8.7 nM | IC50 [1, 7]: 12.8 nM | IC50 [1, 8]: 4.3 nM | IC50 [1, 9]: < 1.5 nM | IC50 [1, 10]: 11.3 nM | IC50 [1, 11]: 397 nM | IC50 [1, 12]: 302 nM | IC50 [1, 13]: 2.9 nM | IC50 [1, 14]: 31.9 nM | IC50 [1, 15]: 8.8 nM | IC50 [1, 16]: 4 nM | IC50 [1, 17]: 1.7 nM | IC50 [1, 18]: 4.7 nM | IC50 [1, 19]: 12.5 nM | IC50 [1, 20]: 126 nM | IC50 [1, 21]: 11.6 nM | IC50 [1, 22]: 15500 nM | IC50 [1, 23]: 6.5 nM | IC50 [1, 24]: 25.2 nM | IC50 [1, 25]: 169 nM | IC50 [1, 26]: 54.9 nM | IC50 [1, 27]: 98.9 nM | IC50 [1, 28]: 12.6 nM | IC50 [1, 29]: 2.8 nM | IC50 [1, 30]: 29.6 nM | IC50 [1, 31]: 5.8 nM | IC50 [1, 32]: 11.5 nM | IC50 ([1]; LK-2, LUNG, NRF2 p.E79K): < 1.5 nM | IC50 [1, 33]: 3.4 nM | IC50 [1, 34]: 3.9 nM | IC50 ([1]; NCI-H920, LUNG, KEAP1 p.G603V): 191 nM | IC50 [1, 35]: 38 nM | IC50 [1, 36]: < 2 nM | IC50 [1, 37]: 4.4 nM | IC50 [1, 38]: 5.1 nM | IC50 [1, 39]: 5.9 nM | IC50 [1, 40]: 156 nM | IC50 [1, 41]: 12.6 nM | IC50 [1, 42]: 21.5 nM | IC50 ([1]; SNU2535, LUNG, NRF2 p.D29H): 8.9 nM | IC50 [1, 43]: 6.7 nM | IC50 (A549): 0.01 µM
